Assay results: US12059429B2, “Hornerin: a novel non-VEGF mediated angiogenic protein expressed in both human and mouse angiogenic endothelial cells and human pancreatic cancer cells” (University of Virginia Patent Foundation, priority 2018, dated 2024)

What was measured:
[1] = system: murine Hrnr; assay: In vitro siRNA-mediated hornerin knockdown in COCA cells (immunoblot); type: cell-based; settings: COCA mouse keratinocytes, densitometry
Protocol: (§1) For in vitro siRNA-mediated hornerin knockdown, COCA cells and human keratinocytes were plated at a density of 0.1×10^6 cells/well in a six-well cluster plate. The cells were treated the following day with Scr siRNA or Hrnr siRNA (Invitrogen; siRNA sequences identical to those utilized in tumor studies) following an established protocol (see Rachow et al., 2013). Briefly, 100 μL of 10 μM siRNA and 12.5 μL of Lipofectamine 2000 (LF2000; Invitrogen) were added to separate 625 μL OptiMEM (Thermo Fisher Scientific) aliquots. After 5 minutes at RT, the solutions were mixed and incubated for an additional 30 minutes, upon which 5 ml of keratinocyte media were added. The cells were incubated overnight in 3 ml of the siRNA/LF2000/media mixture, replenished the following morning with media containing 2 mM CaCl2) to induce differentiation, and lysed in RIPA buffer 8 hours post-media change. Lysate preparations were subjected to immunoblot using the primary antibodies anti-human hornerin (Abcam; 1:1000), anti-mouse hornerin (Santa Cruz Biotechnology, Dallas, TX, USA, sc164605; 1:200), or anti-beta actin (Cell Signaling; 1:4000), and respective secondary antibodies anti-goat HRP (R&D Systems; 1:10,000), and anti-mouse HRP (R&D Systems; 1:10,000). Uncropped hornerin immunoblots are represented in FIGS. 6A and 6B.

[2] = system: L3.6pl xenografts; assay: Flow cytometry/FACS of tumor cell populations; type: in vivo, mouse
Protocol: Day 10 tumors were injected with either Scr siRNA or Hrnr siRNA and excised 20 hours later. The tumors were immediately washed in PBS (+Mg/+Ca), minced with scalpels, treated with Collagenase Type II (Worthington Biochemical Corporation, Lakewood, NJ, USA; (2.0 mg/mL) serum-free DMEM, 100 minutes at 37° C.), and filtered through a 40 μm cell strainer. The cell suspension (filtrate) was incubated with the following antibody/dye panel for FACS; anti-CD45 AF488 (1:100; Biolegend, San Diego, CA, USA, 103121, clone 30-F11), anti-CD31 AF647 (1:100; Biolegend, 102415, clone 390), LIVE/DEAD violet stain (1:200; Thermo Fisher). Flow cytometry analysis was completed on the Cyan ADP LX (Beckman Coulter). Compensation and data analysis was completed using FlowJo software (Ashland, OR, USA). FACS was completed in the UVA flow cytometry core on the Influx cell sorter (BD Biosciences, Franklin Lakes, NJ, USA).

[3] = system: tumor vascularity; assay: DCE-MRI and Ktrans measurement of L3.6pl tumors; type: in vivo, mouse
Protocol: To assess the in vivo function of tumor vascularity, DCE-MRI was performed on a 7.0 T Clinscan small animal imaging system (Bruker, Ettlingen, Germany) using a 30 mm inner-diameter birdcage radiofrequency coil. Mice (N=7) were imaged prior to treating tumors with Hrnr and Scr siRNA and again 6 days after treatment. Mice treated with the VEGFR inhibitor AV-951 (N=5) were image pre-siRNA treatment and 6 days posttreatment. Mice were anesthetized with 1.25% isoflurane anesthesia, which was maintained during imaging. Respiration and ECG were monitored during imaging using an MRI-compatible system (SA Instruments, Stony Brook, NY, USA). An indwelling tail vein catheter was established for administration of the gadolinium contrast agent Gd-DTPA, which is required in DCE imaging. Mice were placed supine in the imaging system, and body temperature was maintained at 36° C.±1° C. using circulating, temperature controlled water. Tumors were localized using a spin-echo imaging sequence, and an imaging plane that transected both tumors was chosen for DCE imaging.
A dual-Gd-bolus DCE-MRI acquisition strategy (Christian et al., 2004) was employed, which uses a low dose of contrast agent to accurately acquire the undistorted Gd concentration vs. time curve in the blood pool and a higher dose of contrast agent to acquire the Gd concentration vs. time curve in the tumor with high signal-to-noise ratio, since Gd-DTPA is known to have signal saturation effects at high doses in the blood pool (Christian et al., 2004). […]

[4] = system: human hornerin; assay: In vitro siRNA treatment of human keratinocytes (immunoblot); type: cell-based
Protocol: as §1

Which results are given for “5′-GCAUGGAUCUUGUUGCGGUTT-3′ [Hrnr siRNA]”?
reduction in hornerin expression (knockdown) relative to Scr siRNA [1]: 60%; proportion of leukocytes (CD45+/CD31- cells) ([2]; FACS of tumor cell suspensions): not altered; proportion of endothelial cells (CD31+/CD45-) ([2]; FACS, vs Scr siRNA): not different; tumor concentration of Gd-DTPA ([3]; after 6 days of siRNA injection every other day, vs Scr siRNA): two-fold reduced; reduction in Ktrans ([3]; after 6 days of siRNA injections, vs control): 2.4 fold; loss of hornerin relative to Scr siRNA ([4]; similar conditions): ~10%; hornerin expression level relative to Scr siRNA ([4]; similar siRNA conditions): ~90%
